Publication PMC8352984, “Estrogen mediates sex differences in preoptic neuropeptide and pituitary hormone production in medaka” (Communications Biology, 2021)

Experiments:
Assay type in all cases: cell-based, medaka (Oryzias latipes)
[1] = test system: luteinizing hormone β subunit (lhb) gene expression; assay: Ex vivo pituitary organ culture, real-time PCR of lhb; conditions: for lhb expression (in words): 10^-5 M, 24 h, 25 °C, vs vehicle;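 as to lhb expression (Fig. 8, lhb): relative expression with female control samples set to 1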
From the text: (§1) Fig. 8 Pacap and Vip have pleiotropic effects on the expression of anterior pituitary hormones. The effects of Pacap and Vip on gene expression levels of follicle-stimulating hormone β subunit (fshb), luteinizing hormone β subunit (lhb), thyroid-stimulating hormone β subunit (tshb), growth hormone (gh), somatolactin (sl), prolactin (prl), and pro-opiomelanocortin (pomc) were investigated by using male and female pituitaries cultured ex vivo (n = 6 per group, except male pituitary supplemented with Vip, where n = 5). Data were expressed as means with error bars representing standard error of the mean. Statistical differences were assessed by Dunnett’s post-hoc test. *p < 0.05; **p < 0.01; ***p < 0.001.
(§2) The pituitaries from five male or female fish were pooled for each sample and cultured ex vivo in Leibovitz’s L-15 medium supplemented with 5% charcoal-stripped fetal bovine serum as described elsewhere. The medium was further supplemented with 10^−5 M medaka Pacap or Vip, or vehicle alone. After 24 h of culture at 25 °C, the pituitaries were processed for total RNA extraction and cDNA synthesis by using the RNeasy Plus Micro Kit (Qiagen) and SuperScript VILO cDNA Synthesis Kit (Thermo Fisher Scientific), respectively. Real-time PCR was performed on the LightCycler 480 System II using LightCycler 480 SYBR Green I Master (Roche Diagnostics). The cycle conditions were: 95 °C for 5 min followed by 45 cycles of 95 °C for 10 sec, 60 °C for 10 sec and 72 °C for 10 sec. Melting curve analysis was performed as described above. Data were normalized to the geometric mean of three reference genes, actb, gapdh (encoding glyceraldehyde-3-phosphate dehydrogenase; National BioResource Project (NBRP) Medaka clone ID olbrno9_f15) and rpl13 (encoding ribosomal protein L13; NBRP Medaka clone ID olovano51_b24), according to Vandesompele et al.[63]. The primers used for real-time PCR are listed in Supplementary Table 3.

[2] = test system: thyroid-stimulating hormone β subunit (tshb) gene expression; assay: Ex vivo pituitary organ culture, real-time PCR of tshb; conditions: for tshb expression (in words): 10^-5 M, 24 h, 25 °C, vs vehicle
From the text: as §1, §2

[3] = test system: growth hormone (gh) gene expression; assay: Ex vivo pituitary organ culture, real-time PCR of gh; conditions: for gh expression (in words): 10^-5 M, 24 h, 25 °C, vs vehicle
From the text: as §1, §2

[4] = test system: somatolactin (sl) gene expression; assay: Ex vivo pituitary organ culture, real-time PCR of sl; conditions: for sl expression (in words): 10^-5 M, 24 h, 25 °C, vs vehicle
From the text: as §1, §2

[5] = test system: prolactin (prl) gene expression; assay: Ex vivo pituitary organ culture, real-time PCR of prl; conditions: for prl expression (in words): 10^-5 M, 24 h, 25 °C, vs vehicle
From the text: as §1, §2

[6] = test system: pro-opiomelanocortin (pomc) gene expression; assay: Ex vivo pituitary organ culture, real-time PCR of pomc;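 as to pomc expression (Fig. 8, pomc): relative expression with female control samples set to 1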
From the text: as §1, §2

With “Pituitary adenylate cyclase-activating polypeptide [Pacap]” the “lhb expression (in words)” value ([1]; female pituitaries) was “increased”, the “lhb expression (Fig. 8, lhb)” value ([1]; female, replicate 1) was 2.134 and the “lhb expression (Fig. 8, lhb)” value ([1]; female, replicate 2) was 1.510. For the same substance, the “lhb expression (Fig. 8, lhb)” value ([1]; female, replicate 3) was 1.040, the “lhb expression (Fig. 8, lhb)” value ([1]; female, replicate 4) was 2.513 and the “lhb expression (Fig. 8, lhb)” value ([1]; female, replicate 5) was 1.735. For the same substance, the “lhb expression (Fig. 8, lhb)” value ([1]; female, replicate 6) was 1.319, the “lhb expression (in words)” value ([1]; male pituitaries) was “increased” and the “lhb expression (Fig. 8, lhb)” value ([1]; male, replicate 1) was 3.240. The “lhb expression (Fig. 8, lhb)” value ([1]; male, replicate 2) was 1.453, the “lhb expression (Fig. 8, lhb)” value ([1]; male, replicate 3) was 3.021 and the “lhb expression (Fig. 8, lhb)” value ([1]; male, replicate 4) was 2.751. The “lhb expression (Fig. 8, lhb)” value ([1]; male, replicate 5) was 1.229, the “lhb expression (Fig. 8, lhb)” value ([1]; male, replicate 6) was 1.907 and the “tshb expression (in words)” value ([2]; female pituitaries) was “no significant effects”. The “tshb expression (Fig. 8, tshb)” value ([2]; female, replicate 1) was 0.514, the “tshb expression (Fig. 8, tshb)” value ([2]; female, replicate 2) was 0.485 and the “tshb expression (Fig. 8, tshb)” value ([2]; female, replicate 3) was 0.534. For the same substance, the “tshb expression (Fig. 8, tshb)” value ([2]; female, replicate 4) was 0.502, the “tshb expression (Fig. 8, tshb)” value ([2]; female, replicate 5) was 0.686 and the “tshb expression (Fig. 8, tshb)” value ([2]; female, replicate 6) was 0.387. The “tshb expression (in words)” value ([2]; male pituitaries) was “no significant effects”, the “tshb expression (Fig. 8, tshb)” value ([2]; male, replicate 1) was 0.207 and the “tshb expression (Fig. 8, tshb)” value ([2]; male, replicate 2) was 0.364. The “tshb expression (Fig. 8, tshb)” value ([2]; male, replicate 3) was 1.165, the “tshb expression (Fig. 8, tshb)” value ([2]; male, replicate 4) was 0.157 and the “tshb expression (Fig. 8, tshb)” value ([2]; male, replicate 5) was 2.250. The “tshb expression (Fig. 8, tshb)” value ([2]; male, replicate 6) was 0.895, the “gh expression (in words)” value ([3]; female pituitaries) was “no significant effects” and the “gh expression (Fig. 8, gh)” value ([3]; female, replicate 1) was 0.960. For the same substance, the “gh expression (Fig. 8, gh)” value ([3]; female, replicate 2) was 0.795, the “gh expression (Fig. 8, gh)” value ([3]; female, replicate 3) was 0.779 and the “gh expression (Fig. 8, gh)” value ([3]; female, replicate 4) was 0.968. For the same substance, the “gh expression (Fig. 8, gh)” value ([3]; female, replicate 5) was 0.957, the “gh expression (Fig. 8, gh)” value ([3]; female, replicate 6) was 1.344 and the “gh expression (in words)” value ([3]; male pituitaries) was “no significant effects”. For the same substance, the “gh expression (Fig. 8, gh)” value ([3]; male, replicate 1) was 0.248, the “gh expression (Fig. 8, gh)” value ([3]; male, replicate 2) was 0.325 and the “gh expression (Fig. 8, gh)” value ([3]; male, replicate 3) was 0.488. For the same substance, the “gh expression (Fig. 8, gh)” value ([3]; male, replicate 4) was 0.330, the “gh expression (Fig. 8, gh)” value ([3]; male, replicate 5) was 0.376 and the “gh expression (Fig. 8, gh)” value ([3]; male, replicate 6) was 0.724. The “sl expression (in words)” value ([4]; female pituitaries) was “substantially increased”, the “sl expression (Fig. 8, sl)” value ([4]; female, replicate 1) was 5.138 and the “sl expression (Fig. 8, sl)” value ([4]; female, replicate 2) was 3.103. The “sl expression (Fig. 8, sl)” value ([4]; female, replicate 3) was 4.426, the “sl expression (Fig. 8, sl)” value ([4]; female, replicate 4) was 3.042 and the “sl expression (Fig. 8, sl)” value ([4]; female, replicate 5) was 2.318. The “sl expression (Fig. 8, sl)” value ([4]; female, replicate 6) was 4.074, the “sl expression (in words)” value ([4]; male pituitaries) was “substantially increased” and the “sl expression (Fig. 8, sl)” value ([4]; male, replicate 1) was 1.710. For the same substance, the “sl expression (Fig. 8, sl)” value ([4]; male, replicate 2) was 1.255, the “sl expression (Fig. 8, sl)” value ([4]; male, replicate 3) was 1.415 and the “sl expression (Fig. 8, sl)” value ([4]; male, replicate 4) was 1.513. The “sl expression (Fig. 8, sl)” value ([4]; male, replicate 5) was 0.886, the “sl expression (Fig. 8, sl)” value ([4]; male, replicate 6) was 2.724 and the “prl expression (in words)” value ([5]; female pituitaries) was “substantially increased”. For the same substance, the “prl expression (Fig. 8, prl)” value ([5]; female, replicate 1) was 3.510, the “prl expression (Fig. 8, prl)” value ([5]; female, replicate 2) was 4.473 and the “prl expression (Fig. 8, prl)” value ([5]; female, replicate 3) was 4.149. The “prl expression (Fig. 8, prl)” value ([5]; female, replicate 4) was 4.897, the “prl expression (Fig. 8, prl)” value ([5]; female, replicate 5) was 3.291 and the “prl expression (Fig. 8, prl)” value ([5]; female, replicate 6) was 4.279. The “prl expression (in words)” value ([5]; male pituitaries) was “substantially increased”, the “prl expression (Fig. 8, prl)” value ([5]; male, replicate 1) was 1.555 and the “prl expression (Fig. 8, prl)” value ([5]; male, replicate 2) was 3.928. The “prl expression (Fig. 8, prl)” value ([5]; male, replicate 3) was 2.640, the “prl expression (Fig. 8, prl)” value ([5]; male, replicate 4) was 1.612 and the “prl expression (Fig. 8, prl)” value ([5]; male, replicate 5) was 3.371. For the same substance, the “prl expression (Fig. 8, prl)” value ([5]; male, replicate 6) was 6.401, the “pomc expression (Fig. 8, pomc)” value ([6]; female, replicate 1) was 1.650 and the “pomc expression (Fig. 8, pomc)” value ([6]; female, replicate 2) was 0.962. The “pomc expression (Fig. 8, pomc)” value ([6]; female, replicate 3) was 1.174, the “pomc expression (Fig. 8, pomc)” value ([6]; female, replicate 4) was 1.174 and the “pomc expression (Fig. 8, pomc)” value ([6]; female, replicate 5) was 1.328. For the same substance, the “pomc expression (Fig. 8, pomc)” value ([6]; female, replicate 6) was 1.116, the “pomc expression (in words)” value ([6]; male pituitaries, 10^-5 M, 24 h, 25 °C, vs vehicle) was “reduced” and the “pomc expression (Fig. 8, pomc)” value ([6]; male, replicate 1) was 5.882. The “pomc expression (Fig. 8, pomc)” value ([6]; male, replicate 2) was 3.434, the “pomc expression (Fig. 8, pomc)” value ([6]; male, replicate 3) was 4.022 and the “pomc expression (Fig. 8, pomc)” value ([6]; male, replicate 4) was 3.555. The “pomc expression (Fig. 8, pomc)” value ([6]; male, replicate 5) was 1.951 and the “pomc expression (Fig. 8, pomc)” value ([6]; male, replicate 6) was 4.484.
